Tested on: 328373-195-R-J1-PDC complex spheroids, viability % test/control
Assay: Anticancer human tumor 328373-195-R-J1-PDC patient-derived head and neck squamous carcinoma cell line growth inhibition [CLK]
Conditions: for IC50: curve of first compound; for viability, T/C: stronger effect = lower value
Outline: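 Patient-derived tumor cells grown as complex spheroids with HUVEC endothelial cells and mesenchymal stem cells, treated with drug combinations. Concentrations descend in half-log steps from near clinical Cmax, or from 10 microM if Cmax unknown.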

[1] = second compound 0.0316 µM, first compound 0.0316 µM
[2] = second compound 0.0316 µM, first compound 0.1 µM
[3] = second compound 0.0316 µM, first compound 0.316 µM
[4] = second compound 0.0316 µM, first compound 1 µM
[5] = second compound 0.0316 µM, first compound 3.16 µM
[6] = second compound 0.0316 µM, first compound 10 µM
[7] = second compound 0.1 µM, first compound 0.0316 µM
[8] = second compound 0.1 µM, first compound 0.1 µM
[9] = second compound 0.1 µM, first compound 0.316 µM
[10] = second compound 0.1 µM, first compound 1 µM
[11] = second compound 0.1 µM, first compound 3.16 µM
[12] = second compound 0.1 µM, first compound 10 µM
[13] = second compound 0.316 µM, first compound 0.0316 µM
[14] = second compound 0.316 µM, first compound 0.1 µM
[15] = second compound 0.316 µM, first compound 0.316 µM
[16] = second compound 0.316 µM, first compound 1 µM
[17] = second compound 0.316 µM, first compound 3.16 µM
[18] = second compound 0.316 µM, first compound 10 µM
[19] = second compound 1 µM, first compound 0.0316 µM
[20] = second compound 1 µM, first compound 0.1 µM
[21] = second compound 1 µM, first compound 0.316 µM
[22] = second compound 1 µM, first compound 1 µM
[23] = second compound 1 µM, first compound 3.16 µM
[24] = second compound 1 µM, first compound 10 µM
[25] = second compound 3.16 µM, first compound 0.0316 µM
[26] = second compound 3.16 µM, first compound 0.1 µM
[27] = second compound 3.16 µM, first compound 0.316 µM
[28] = second compound 3.16 µM, first compound 1 µM
[29] = second compound 3.16 µM, first compound 3.16 µM
[30] = second compound 3.16 µM, first compound 10 µM
[31] = second compound 10 µM, first compound 0.0316 µM
[32] = second compound 10 µM, first compound 0.1 µM
[33] = second compound 10 µM, first compound 0.316 µM
[34] = second compound 10 µM, first compound 1 µM
[35] = second compound 10 µM, first compound 3.16 µM
[36] = second compound 10 µM, first compound 10 µM
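Also: spheroids exposed to the agents for 7 days.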

**Q.** For `COc1ccc([C@@H](O)c2cc(-c3ncnc4cc(N5CCOCC5)ccc34)c(F)cc2Cl)nn1` + CN1CCN(c2cc(C(=O)Nc3cc4cc(-c5cnn(C)c5)ccc4cn3)ccn2)CC1, which IC50 (second compound 0.0316 µM) is on record?
**A.** > 10000 nM

**Q.** And the IC50 (second compound 0.1 µM)?
**A.** 8160 nM

**Q.** And the IC50 (second compound 0.316 µM)?
**A.** < 31.6 nM

**Q.** What about the IC50 (second compound 1 µM) of the same compound?
**A.** < 31.6 nM

**Q.** And the IC50 (second compound 3.16 µM)?
**A.** < 31.6 nM

**Q.** And the IC50 (second compound 10 µM)?
**A.** < 31.6 nM

**Q.** What about the viability, T/C [1] of the same compound?
**A.** 91.6%

**Q.** And the viability, T/C [2]?
**A.** 103%

**Q.** And the viability, T/C [3]?
**A.** 91.1%

**Q.** And the viability, T/C [4]?
**A.** 96.7%

**Q.** What about the viability, T/C [5] of the same compound?
**A.** 71.7%

**Q.** What about the viability, T/C [6] of the same compound?
**A.** 51.5%

**Q.** And the viability, T/C [7]?
**A.** 73.2%

**Q.** What about the viability, T/C [8] of the same compound?
**A.** 87.5%

**Q.** What about the viability, T/C [9] of the same compound?
**A.** 73%

**Q.** What about the viability, T/C [10] of the same compound?
**A.** 96.7%

**Q.** And the viability, T/C [11]?
**A.** 71.5%

**Q.** And the viability, T/C [12]?
**A.** 45.4%

**Q.** What about the viability, T/C [13] of the same compound?
**A.** 21%

**Q.** What about the viability, T/C [14] of the same compound?
**A.** 25.2%

**Q.** And the viability, T/C [15]?
**A.** 20.6%

**Q.** And the viability, T/C [16]?
**A.** 17.7%

**Q.** And the viability, T/C [17]?
**A.** 21.5%

**Q.** And the viability, T/C [18]?
**A.** 22.5%

**Q.** What about the viability, T/C [19] of the same compound?
**A.** 0.11%

**Q.** And the viability, T/C [20]?
**A.** 2.93%

**Q.** And the viability, T/C [21]?
**A.** 2.16%

**Q.** What about the viability, T/C [22] of the same compound?
**A.** 2.41%

**Q.** What about the viability, T/C [23] of the same compound?
**A.** 1.4%

**Q.** What about the viability, T/C [24] of the same compound?
**A.** 2.54%

**Q.** What about the viability, T/C [25] of the same compound?
**A.** 2.66%

**Q.** What about the viability, T/C [26] of the same compound?
**A.** 0.1%

**Q.** What about the viability, T/C [27] of the same compound?
**A.** 0.14%

**Q.** And the viability, T/C [28]?
**A.** 0.11%

**Q.** And the viability, T/C [29]?
**A.** 3.57%

**Q.** What about the viability, T/C [30] of the same compound?
**A.** 2.6%

**Q.** And the viability, T/C [31]?
**A.** 1.28%

**Q.** What about the viability, T/C [32] of the same compound?
**A.** 1.19%

**Q.** And the viability, T/C [33]?
**A.** 0.19%

**Q.** And the viability, T/C [34]?
**A.** 0.13%

**Q.** What about the viability, T/C [35] of the same compound?
**A.** 0.17%

**Q.** And the viability, T/C [36]?
**A.** 1.61%

**Q.** Which results are given for `COc1cccc2c1C(=O)c1c(O)c3c(c(O)c1C2=O)CC(O)(C(=O)CO)CC3OC1CC(N)C(O)C(C)O1` (centres undefined) + CN1CCN(c2cc(C(=O)Nc3cc4cc(-c5cnn(C)c5)ccc4cn3)ccn2)CC1?
**A.** IC50 (second compound 0.0316 µM): < 31.6 nM; IC50 (second compound 0.1 µM): < 31.6 nM; IC50 (second compound 0.316 µM): < 31.6 nM; IC50 (second compound 1 µM): < 31.6 nM; IC50 (second compound 3.16 µM): < 31.6 nM; IC50 (second compound 10 µM): < 31.6 nM; viability, T/C [1]: 13.4%; viability, T/C [2]: 8.66%; viability, T/C [3]: 2.1%; viability, T/C [4]: 0.22%; viability, T/C [5]: 2.55%; viability, T/C [6]: 1.06%; viability, T/C [7]: 14.7%; viability, T/C [8]: 5.57%; viability, T/C [9]: 0.44%; viability, T/C [10]: 0.19%; viability, T/C [11]: 0.12%; viability, T/C [12]: 1.87%; viability, T/C [13]: 13.2%; viability, T/C [14]: 2.4%; viability, T/C [15]: 3.38%; viability, T/C [16]: 1.11%; viability, T/C [17]: 0.1%; viability, T/C [18]: 2%; viability, T/C [19]: 1.05%; viability, T/C [20]: 2.51%; viability, T/C [21]: 4.63%; viability, T/C [22]: 0.09%; viability, T/C [23]: 1.51%; viability, T/C [24]: 0.08%; viability, T/C [25]: 0.07%; viability, T/C [26]: 4.11%; viability, T/C [27]: 0.93%; viability, T/C [28]: 0.07%; viability, T/C [29]: 1.76%; viability, T/C [30]: 0.11%; viability, T/C [31]: 0.1%; viability, T/C [32]: 0.75%; viability, T/C [33]: 0.41%; viability, T/C [34]: 0.11%; viability, T/C [35]: 2.76%; viability, T/C [36]: 0.61%
